# Experiments:
# [1] = test system: aromatase transgenic mice; settings: 5 μg/mouse/daily, previous studies; cited from earlier work
# [2] = test system: follicle stimulating hormone; assay: Serum FSH levels (double antibody radioimmunoassay); type: in vivo, mice
# From the text: Aged (about 16-20 weeks old) virgin aromatase transgenic females were used to investigate the effect of the aromatase inhibitor, COMPOUND I, as a chemopreventive agent against the preneoplastic and neoplastic changes induced in mammary glands of these mice. In this study, age-matched transgenic females were divided into four groups, one group (n=10) served as control group, the […]; […] propyl cellulose (in phospate buffered saline). Control animals were given s.c. injection of vehicle. COMPOUND I was a gift from Drs. Ajay Bhatnagar and Dean Evans of Novartis Pharma (Basel, Switzerland). At the end of the 6-week treatment, mammary glands were removed and one gland each was used for histological analysis. All other glands were pooled then used for biochemical analysis as described below. Along with the mammary glands, uterus and ovaries was collected for biochemical and histological analyses.
# Blood from both control and COMPOUND I-treated groups was collected by cardiac puncture directly before harvesting tissues. Serum concentrations of estradiol were measured by double antibody radioimmunoassay using commercially available reagents (Diagnostic Products Corp., Los Angeles, Calif.). […] FSH levels were measured using a standard double antibody radioimmunoassay. […] Differences in mean estradiol or FSH levels were compared, and significance was determined using paired Student's t-test.
# [3] = test system: estrogen receptor (ER), progesterone receptor (PR), cyclin D1 and proliferating cell nuclear antigen (PCNA); assay: Western blot of ER, PR, cyclin D1 and PCNA protein levels in mammary tissues; type: in vivo, mice; settings: 5 μg
# Method: (§1) Aged (about 16-20 weeks old) virgin aromatase transgenic females were used to investigate the effect of the aromatase inhibitor, COMPOUND I, as a chemopreventive agent against the preneoplastic and neoplastic changes induced in mammary glands of these mice. In this study, age-matched transgenic females were divided into four groups, one group (n=10) served as control group, the other groups received daily s.c. injection of COMPOUND I and three different doses; 0.25, 05, 1.0 μg COMPOUND I per animal in 100 μl of 0.3% hydroxy propyl cellulose (in phospate buffered saline). Control animals were given s.c. injection of vehicle. COMPOUND I was a gift from Drs. Ajay Bhatnagar and Dean Evans of Novartis Pharma (Basel, Switzerland). At the end of the 6-week treatment, mammary glands were removed and one gland each was used for histological analysis. All other glands were pooled then used for biochemical analysis as described below. Along with the mammary glands, uterus and ovaries was collected for biochemical and histological analyses.
# (§2) To isolate proteins from mammary gland and uterine tissue of both control and COMPOUND I-treated aromatase animals, the tissues were homogenized in lysis buffer. Equal amounts (60 ug) of protein from each sample was separated on a denaturing polyacrylamide gel and transferred to a nylon membrane. […]
# lactoferrin, ER, and PR = assay: Western blot of lactoferrin, ER and PR protein levels in uterus tissue; type: in vivo, mice; settings: 1.0 μg per day per animal
# Method: as §1, §2
# [4] = test system: aromatase transgenic mice; assay: Effect on uterus and ovary histo-morphological features / normal endocrinological functions; type: in vivo
# Method: The skin containing the mammary fat pads was fixed in 10% neutral buffered formalin for at least 24 h. The mammary glands were then dissected free from skin and processed for histological examinations (D. Medina, Preneoplastic lesions in mouse mammary tumorigenesis, Methods Cancer Res. 7 (1973) 3-53. 514). Routine section of mammary tissues, uterus and ovary were prepared after fixation by embedding in paraf.n, sectioning at 5 μM, and staining with H&E. To immunolocalize aromatase expression, 5 μM thick sections of aromatase and nontransgenic mammary gland tissue were used. After deparaffination and rehydration in xylene and ethanol, nonspecific sites were blocked by incubating with 1% normal goat serum in 0.05M Tris-HCl buffer. After decanting the reagents, the sections were covered with rabbit polyclonal antibody to rat aromatase synthetic peptide in 1:100 dilution (aromatase antibody was obtained from Dr. Evan Simpson, University of Texas Southwestern Medical Center, Dallas, Tex.; currently at Prince Henry's Institute, Clayton, Vic., Australia). The samples were incubated overnight at 4° C. in a humidied chamber. After three washings with 0.05M Tris-HCl buffer, the slides were incubated with alkaline phosphate conjugated secondary antibody for 30 min at room temperature and washings were repeated and sections were incubated with 1% fast red/naphthol AS phospate solution for 5 min. Sections were washed again and cover slipped and staining pattern was observed using light microscope.
# Aged (about 16-20 weeks old) virgin aromatase transgenic females were used to investigate the effect of the aromatase inhibitor, COMPOUND I, as a chemopreventive agent against the preneoplastic and neoplastic changes induced in mammary glands of these mice. In this study, age-matched transgenic females were divided into four groups, one group (n=10) served as control group, the other groups received daily s.c. injection of COMPOUND I and three different doses; 0.25, 05, 1.0 μg COMPOUND I per animal in 100 μl of 0.3% hydroxy propyl cellulose (in phospate buffered saline). […]
# estradiol = assay: Serum estradiol levels (double antibody radioimmunoassay); type: in vivo, mice; settings: for circulating estrogen (estradiol) level: control 12.5 pg/ml, no significant difference
# Method: as §1
# Blood from both control and COMPOUND I-treated groups was collected by cardiac puncture directly before harvesting tissues. Serum concentrations of estradiol were measured by double antibody radioimmunoassay using commercially available reagents (Diagnostic Products Corp., Los Angeles, Calif.). […] Assaying increasing volumes of serum from 50 to 200 μl produced a displacement line parallel to the standard curve. Intra-assay and inter assay coefficients of variation averaged <10.0 and 6.7%, respectively. FSH levels were measured using a standard double antibody radioimmunoassay. Purified FSH obtained from NIH hormone resource was used as a standard. Differences in mean estradiol or FSH levels were compared, and significance was determined using paired Student's t-test.
structure (smiles),measurement,setting,value
N#Cc1ccc(C(c2ccc(C#N)cc2)n2cncn2)cc1 [COMPOUND I],effect on normal endocrinological functions,[1],affected some normal endocrinological functions
same,circulating FSH level,"[2]; 0.5 μg, no significant difference to control",200 ng/mL
same,circulating FSH level,"[2]; 5.0 μg, difference to control very significant (paired Student's t-test)",480 ng/mL
same,"level of PCNA, reduction",[3],50%
same,decrease in expression of the uterine marker lactoferrin vs control,"lactoferrin, ER, and PR",1.8 fold
same,effect on histo-morphological features of the uterus and ovary,[4]; 0.25 μg per day per animal,no effect
same,effect on histo-morphological features of the uterus and ovary,[4]; 0.5 μg per day per animal,no effect
same,effect on histo-morphological features of the uterus and ovary,[4]; 1 μg per day per animal,no effect
same,circulating estrogen (estradiol) level,estradiol; 0.25 μg per day per animal,12.1 pg/mL
same,circulating estrogen (estradiol) level,estradiol; 0.5 μg per day per animal,12.5 pg/mL
same,circulating levels of estradiol,estradiol; dose of 0.5 μg per day per animal as printed in last sentence of b103,2 pg/mL

# Reference: patent US20090036507A1, “BIS (CYANOPHENYL) METHYL-TRIAZOLE FOR USE IN PREVENTION OF BREAST CANCER” (priority 2001, published 2009)
